Results from ChEMBL document CHEMBL4138307, “Click-Addressable Cassette for Photoaffinity Labeling” (ACS Med Chem Lett, 2018).
Active and inactive are the calls of the source. The rule behind the calls is not given here.

Key:
[1] = biological target: Carbonic anhydrase 9 (Homo sapiens) (UniProt Q16790); experiment: (§1) Binding affinity to recombinant carbonic anhydrase 9 (unknown origin) at 5 to 10 uM preincubated for 2 hrs in dark followed by irradiation with LED UV flashlight at 365 nm for 30 mins in presence of coomassie brilliant blue G250 staining by SDS-PAGE based fluorescence imaging
[2] = biological target: Carbonic anhydrase 9 (Homo sapiens) (UniProt Q16790); experiment: as §1, with “50 fold excess of 4-(2-((4-(4-(benzyl(prop-2-yn-1-yl)amino)piperidin-1-yl)-6-chloro-1,3,5-triazin-2-yl)amino)ethyl)benzenesulfonamide” for “coomassie brilliant blue G250 staining”
[3] = biological target: Carbonic anhydrase 9 (Homo sapiens) (UniProt Q16790); experiment: Binding affinity to recombinant carbonic anhydrase 9 (unknown origin) at 5 to 10 uM preincubated for 2 hrs in dark followed by irradiation with LED UV flashlight at 365 nm for 30 mins in presence of azide fluor 488 staining by SDS-PAGE based fluorescence imaging
[4] = biological target: Carbonic anhydrase 9 (Homo sapiens) (UniProt Q16790); experiment: (§2) Binding affinity to carbonic anhydrase 9 in human MDA-MB-231 cell lysate at 5 uM preincubated for 3 hrs in dark followed by irradiation with LED UV flashlight at 365 nm for 30 mins by biotin-azide/neutravidin agarose gel based Western blot analysis
[5] = biological target: Carbonic anhydrase 9 (Homo sapiens) (UniProt Q16790); experiment: as §2, with “mins in presence of 4-(2-((4-(4-(benzyl(prop-2-yn-1-yl)amino)piperidin-1-yl)-6-chloro-1,3,5-triazin-2-yl)amino)ethyl)benzenesulfonamide” for “mins”
[6] = biological target: NT-3 growth factor receptor (Homo sapiens) (UniProt Q16288); experiment: Binding affinity to TrkC (unknown origin) expressed in mouse NIH3T3 cell lysate at 10 uM preincubated for 3 hrs in dark followed by irradiation with LED UV flashlight at 365 nm for 30 mins by biotin-azide/neutravidin agarose gel based Western blot analysis
Chain of NT-3 growth factor receptor (Homo sapiens) (Q16288 32-839 limits assumed): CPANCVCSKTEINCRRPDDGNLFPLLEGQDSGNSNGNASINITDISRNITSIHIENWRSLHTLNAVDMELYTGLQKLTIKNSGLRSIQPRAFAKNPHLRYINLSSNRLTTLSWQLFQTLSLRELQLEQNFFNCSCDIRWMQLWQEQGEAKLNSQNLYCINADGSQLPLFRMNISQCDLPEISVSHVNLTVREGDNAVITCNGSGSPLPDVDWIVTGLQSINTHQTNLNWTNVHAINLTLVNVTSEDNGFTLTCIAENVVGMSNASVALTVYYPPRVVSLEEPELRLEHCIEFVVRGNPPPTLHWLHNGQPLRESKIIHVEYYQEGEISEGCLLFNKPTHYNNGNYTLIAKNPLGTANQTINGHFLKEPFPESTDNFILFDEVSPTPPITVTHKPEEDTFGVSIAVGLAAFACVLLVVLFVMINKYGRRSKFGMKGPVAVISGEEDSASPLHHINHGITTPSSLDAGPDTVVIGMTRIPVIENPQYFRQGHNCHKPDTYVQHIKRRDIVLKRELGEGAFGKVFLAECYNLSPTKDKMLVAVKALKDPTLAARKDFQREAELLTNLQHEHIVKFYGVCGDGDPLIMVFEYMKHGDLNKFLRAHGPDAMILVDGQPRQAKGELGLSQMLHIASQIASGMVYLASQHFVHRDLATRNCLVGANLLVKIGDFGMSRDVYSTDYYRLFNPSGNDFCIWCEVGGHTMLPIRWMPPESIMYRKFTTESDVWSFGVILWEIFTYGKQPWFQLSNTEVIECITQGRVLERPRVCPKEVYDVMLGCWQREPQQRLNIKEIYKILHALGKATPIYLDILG

[7] = biological target: NT-3 growth factor receptor (Homo sapiens) (UniProt Q16288); experiment: Binding affinity to recombinant TrkC (unknown origin) at 10 to 25 uM preincubated for 1 hr in dark followed by irradiation with LED UV flashlight at 365 nm for 30 mins in presence of 80 fold excess of (2S,2'S)-1,1'-((6-(4-(benzyl(prop-2-yn-1-yl)amino)piperidin-1-yl)-1,3,5-triazine-2,4-diyl)bis(piperazine-4,1-diyl))bis(2-(4-((1S,2S)-1-amino-2-methylbutyl)-1H-1,2,3-triazol-1-yl)-3-(4-hydroxyphenyl)propan-1-one) by SDS-PAGE based fluorescence imaging
[8] = biological target: NT-3 growth factor receptor (Homo sapiens) (UniProt Q16288); experiment: Binding affinity to recombinant TrkC (unknown origin) at 10 to 25 uM incubated for 1 hr in dark in presence of azide fluor 488 staining by SDS-PAGE based fluorescence imaging
[9] = biological target: NT-3 growth factor receptor (Homo sapiens) (UniProt Q16288); experiment: Binding affinity to recombinant TrkC (unknown origin) at 10 to 25 uM preincubated for 1 hr in dark followed by irradiation with LED UV flashlight at 365 nm for 30 mins in presence of azide fluor 488 staining by SDS-PAGE based fluorescence imaging

SMILES | Activity [1] | Activity [2] | Activity [3] | Activity [4] | Activity [5] | Activity [6] | Activity [7] | Activity [8] | Activity [9]
C#CCN(Cc1ccc(C2(C(F)(F)F)N=N2)cc1)C1CCN(c2nc(Cl)nc(NCCc3ccc(S(N)(=O)=O)cc3)n2)CC1 | Active | inactive | Active | Active | inactive |  |  |  | 
C#CCN(Cc1ccc(C2(C(F)(F)F)N=N2)cc1)C1CCN(c2nc(N3CCN(C(=O)[C@H](Cc4ccc(O)cc4)n4cc([C@@H](N)[C@@H](C)CC)nn4)CC3)nc(N3CCN(C(=O)[C@H](Cc4ccc(O)cc4)n4cc([C@@H](N)[C@@H](C)CC)nn4)CC3)n2)CC1 |  |  |  |  |  | Active | inactive | inactive | Active
